The series in a line: gradient 5% acetonitrile 3 min, to 50% in 2 min, to 85% in 15 min, held 3 min, 100 µL/min. As to conditions: column: Zorbax Extend-C18 2.1 x 50 mm; eluents: water / acetonitrile, 0.1% formic acid. The method, boiled down: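 Mixtures of ~100 pure standards were chromatographed on a Zorbax Extend-C18 column (2.1 × 50 mm, 1.8 μm) at 100 μL/min using water and acetonitrile, each with 0.1% formic acid. Detection used a quadrupole time-of-flight mass spectrometer in positive and negative ionization mode, and data collection spanned 3 months. Retention time was obtained from adduct peaks picked computationally and each checked manually.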
`Cc1cc(=O)n(CC(=O)Nc2cccc(C#N)c2)c(-c2ccc(F)cc2)n1` registered an RP-LC retention time of 995 s.
The figure for `CCN(CC)C(=O)c1c2c(cn(-c3ccc(F)cc3)c1=O)C(=O)CC(C)(C)C2` is 759 s; for `COC(=O)C1=C(C)NC2=C(C(=O)c3ccccc32)C1c1ccc(OC)cc1OC` (centres undefined) it is 856 s.
As to `O=C(C1CC1)N1[C@H]2CC[C@@H]1c1cnc(-c3ccc(F)cc3)nc1C2`, the RP-LC retention time turned out to be 870 s.
Regarding `Cc1cccc(CN2N=C(C(=O)N3CCOCC3)S(=O)(=O)c3ccc(C)cc32)c1`, the RP-LC retention time worked out at 835 s.
In turn, `CC1CCN(C(=O)C2c3ccccc3CCN2CC(=O)NCC2CCCCC2)CC1` (centres undefined) registered an RP-LC retention time of 1070 s.
The figure for `COc1ccc(CNS(=O)(=O)c2c(C)nn(-c3ccc(-c4ccc(C)cc4)nn3)c2C)cc1` is 1070 s; for `Cc1cc(N2CCCC2)nc(N2CCN(C(=O)c3ccc(C(C)(C)C)cc3)CC2)n1` it is 813 s.
To `COc1ccc(NC(=O)N2CCC3(CC2)NC(=O)c2cc(Cl)ccc2N3C)cc1OC` belongs 722 s; to `Cc1sc2nc(SCc3ccc(C(=O)NCCO)cc3)[nH]c(=O)c2c1C`, 647 s; to `CCOC(=O)Nc1ccccc1NC(=O)OCC`, 717 s.
The figure for `CCNC(=O)C1CC(=O)N(C2CCCCC2)C1` (centres undefined) is 623 s; for `O=C(Cn1nc2c(Oc3ccc(F)cc3)nccn2c1=O)NCc1ccccc1` it is 770 s.
Take `CCN1c2ccc(C)cc2C(=O)NC12CCN(C(=O)c1ccc(F)cc1)CC2`: the RP-LC retention time stood at 828 s.
`O=c1c2nc(-c3ccccc3)cn2ccn1-c1ccc(F)c(Cl)c1` came in with an RP-LC retention time of 853 s.
Compound `Cc1ccccc1Oc1nccn2c(=O)n(CC(=O)Nc3c(C)cccc3C)nc12` registered an RP-LC retention time of 838 s.
Compound `CCN1CCN(c2c(S(=O)(=O)c3ccc(Cl)cc3)cnc3cc4c(cc23)OCCO4)CC1` showed an RP-LC retention time of 660 s.
To `CCN(CC)c1nc2cc(C(=O)OC)ccc2c(=O)n1-c1ccccc1` belongs 1110 s.
To `CCc1ccc(S(=O)(=O)N2CCCN(c3ccc(=O)n(-c4ccccc4)n3)CC2)cc1` belongs 904 s.
`CCCCNC(=O)C1CCCN1C(=O)c1ccc(NC(=O)C(C)(C)C)cc1` (centres undefined) had an RP-LC retention time of 693 s.
On to `Cc1cccc(NC(=O)NCC(c2cccnc2)c2cn(C)c3ccccc23)c1` (centres undefined), for which the RP-LC retention time amounted to 723 s.
`Fc1ccc(-c2nnc(-c3ccc(-n4ccnc4)nc3)o2)c(F)c1` yielded an RP-LC retention time of 645 s.
`COc1ccc(OC)c(-c2cc(C(=O)N3CCC(C(=O)NCC(F)(F)F)CC3)[nH]n2)c1` displayed an RP-LC retention time of 705 s.
To `CC(=O)N1CCc2cc(-c3ccc(C(=O)NCc4ccc5c(c4)OCO5)cc3)ccc21` belongs 824 s.
The figure for `CC1=C(c2ccc(C)cc2)S(=O)(=O)N=C1N1CCCN(C(=O)c2ccc(C#N)cc2)CC1` is 835 s; for `Cn1nc2c(c1NC(=O)c1ccc([N+](=O)[O-])s1)CCC2` it is 698 s.
The figure for `Cc1ccc(-c2nccn3cc(C(=O)N4CCN(C5CCCCC5)CC4)nc23)cc1` is 682 s.
As for `Cc1noc(-c2cc(=O)n(CC(=O)Nc3cccc(Cl)c3C)c3ccccc23)n1`, the RP-LC retention time stood at 923 s.
`CCc1cccc(C)c1NC(=O)Cn1nc2c3cccc(C)c3ncn2c1=O` came in with an RP-LC retention time of 615 s.
The figure for `COc1ccc(NC(=O)CSc2nnc3c4cc(-c5ccc(Cl)cc5)nn4ccn23)c(OC)c1` is 951 s; for `O=S(=O)(Cc1cccc(F)c1)NCCc1ccsc1` it is 852 s; for `Cc1ccc(-c2ccc3nnc(CCC(=O)NCc4ccccc4C(F)(F)F)n3n2)cc1` it is 794 s.
To `CCN1C(=O)c2cccnc2Sc2cc(NC(=O)c3ccn(CC)n3)ccc21` belongs 738 s; to `O=C(NCc1cccc(Br)c1)C(=O)c1ccc[nH]1`, 874 s; to `O=C(Cc1nnc(-c2cccc(F)c2)o1)Nc1ccccc1`, 808 s.
To `COc1ccc(CNC(=O)c2cccc(N3CCNC(c4ccccc4)C3)n2)cc1` (centres undefined) belongs 634 s.
The compound `COCc1noc([C@@H]2CN(C(=O)C3CC=CCC3)C[C@H]2C(N)=O)n1` (some centres undefined) displayed an RP-LC retention time of 610 s.
In turn, `COC(=O)c1ccc(C(=O)NCC2(O)CCOCC2)cc1` registered an RP-LC retention time of 584 s.
To `Cc1cc(-c2nc(-c3ccc(OC(F)(F)F)cc3)no2)nn1Cc1ccnc(N2CCN(C3CC3)CC2)c1` belongs 957 s; to `COc1ccc(CNC(=O)c2cn3cccc(C)c3n2)cc1`, 695 s.
Regarding `CCCCNc1nc(-c2ccc(OC)cc2)nc2ccccc12`, the RP-LC retention time stood at 807 s.
To `CCc1ccc(NC(=O)c2cn(CC)c3ncccc23)cc1` belongs 962 s.
With `COc1ccc(NC(=O)CSc2ccc(N3CCCC(C(=O)NC4CC4)C3)nn2)cc1OC` (centres undefined), the RP-LC retention time is 596 s.
To `CCOC(=O)Cn1c(=N)n(CCN2CCOCC2)c2ccccc21` belongs 548 s.
The figure for `CCn1c(C(=O)NCCCN2CCOCC2)cc2c(=O)oc3ccccc3c21` is 612 s; for `COc1cc(OC)c(NC(=O)c2c(OC)cc(=O)n3c2CCCC3)cc1Cl` it is 884 s; for `Cc1cc(C)n(CC(O)COc2ccc(C(=O)c3ccc(Cl)cc3)cc2)n1` (centres undefined) it is 848 s.
The figure for `Cc1ccccc1-c1csc2c(=O)n(Cc3ccc(N4CCCC4=O)cc3)cnc12` is 889 s.
For `CN(CCNC(=O)C1CCCN(c2ncnc3c2nc2n3CCCCC2)C1)Cc1ccccc1` (centres undefined), the RP-LC retention time amounted to 623 s.
The figure for `CCc1cc(=O)n(CC(=O)N2CCN(c3ccccc3F)CC2)c(N2CCOCC2)n1` is 761 s; for `NC(=O)c1c(NC(=O)C2COc3ccccc3O2)sc2c1CCN(Cc1ccccc1)C2` (centres undefined) it is 587 s.
The figure for `Cc1ccc(S(=O)(=O)N2CC(F)(F)C[C@H]2CN2CCc3ccccc3C2)cc1` is 766 s; for `O=C(CSc1cc(NCc2ccccc2Cl)ncn1)NC1CCCC1` it is 794 s.
In the case of `COCc1c(C(=O)N2CC(F)(F)C[C@H]2c2nc(C)no2)noc1C`, the RP-LC retention time worked out at 778 s.
For `O=C(CN1C(=O)c2cccc3cccc(c23)C1=O)NCC1CCCO1` (centres undefined), the RP-LC retention time turned out to be 651 s.
To `O=C(Cc1ccc(F)cc1)NCCOc1cccc(C(F)(F)F)c1` belongs 880 s; to `Cc1cc2c(c(=O)n(-c3ccc(F)cc3)c(=O)n2CC(=O)N2CCCc3ccccc32)n1C`, 893 s.
To `CCCN1CCN(c2ncc(C(=O)Nc3ccccc3)c(N)n2)CC1` belongs 610 s.
To `COc1ccc(-c2nnc(CC(=O)N3CCCC3)o2)cc1` belongs 677 s.

The record behind these values is the METLIN SMRT retention time set (Domingo-Almenara et al. 2019).
